Results published in ChEMBL document CHEMBL1201862, “PubChem BioAssay data set” (2004).
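A five-concentration, 48-hour dose response in 96-well plates underlies each endpoint, interpolated linearly between surrounding concentrations. The concentration for 50% growth inhibition is given as GI50.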 Calls of active or inactive are those of the source. No stated cut-off is given here; in the data, active = GI50 up to about 1.1 µM and inactive = higher.

What was measured:
Test in all cases: growth of human tumour cells (NCI), 48 h
[1] = test system: A549
[2] = test system: BT-549
[3] = test system: CCRF-CEM
[4] = test system: K562
[5] = test system: M14
[6] = test system: MDA-N
[7] = test system: NCI-H226
[8] = test system: OVCAR-3
[9] = test system: SN12C
[10] = test system: SR
[11] = test system: SW-620
[12] = test system: UACC-257
[13] = test system: UO-31
[14] = test system: CAKI-1
[15] = test system: COLO 205
[16] = test system: IGROV-1
[17] = test system: KM12
[18] = test system: RXF 393
[19] = test system: SK-MEL-5
[20] = test system: SK-OV-3

SMILES	GI50 [1]	GI50 [2]	GI50 [3]	GI50 [4]	GI50 [5]	GI50 [6]	GI50 [7]	GI50 [8]	GI50 [9]	GI50 [10]	GI50 [11]	GI50 [12]	GI50 [13]	GI50 [14]	GI50 [15]	GI50 [16]	GI50 [17]	GI50 [18]	GI50 [19]	GI50 [20]
O=C(O)c1cc(/C=C/c2cc(O)ccc2O)ccc1O	> 10 µM (inactive)	> 10 µM (inactive)	> 10 µM (inactive)	2.85 µM (inactive)	> 10 µM (inactive)	3.43 µM (inactive)	> 10 µM (inactive)	> 10 µM (inactive)	> 10 µM (inactive)	> 10 µM (inactive)	> 10 µM (inactive)	> 10 µM (inactive)	> 10 µM (inactive)	–	–	–	–	–	–	–
COc1cccc(/C=C/c2ccnc3ccccc23)c1OC	> 10 µM (inactive)	> 10 µM (inactive)	4.6 µM (inactive)	4.7 µM (inactive)	> 10 µM (inactive)	4.94 µM (inactive)	> 10 µM (inactive)	7.78 µM (inactive)	> 10 µM (inactive)	–	> 10 µM (inactive)	> 10 µM (inactive)	> 10 µM (inactive)	> 10 µM (inactive)	> 10 µM (inactive)	> 10 µM (inactive)	> 10 µM (inactive)	> 10 µM (inactive)	6.89 µM (inactive)	> 10 µM (inactive)
CCOc1ccc(Nc2nc(N)nc(N)c2N)cc1	45.2 µM (inactive)	23.2 µM (inactive)	20.2 µM (inactive)	13.6 µM (inactive)	47.2 µM (inactive)	3.79 µM (inactive)	42.2 µM (inactive)	30.5 µM (inactive)	> 10 µM (inactive)	0.472 µM (active)	33.1 µM (inactive)	> 100 µM (inactive)	11 µM (inactive)	28.6 µM (inactive)	27.9 µM (inactive)	11.6 µM (inactive)	23.7 µM (inactive)	–	61.5 µM (inactive)	> 100 µM (inactive)
CC(C)(C)c1ccc(C(O)(c2ccc(C(C)(C)C)cc2)c2ccc(C(C)(C)C)cc2)cc1	> 100 µM (inactive)	> 100 µM (inactive)	> 100 µM (inactive)	> 100 µM (inactive)	> 100 µM (inactive)	> 100 µM (inactive)	> 100 µM (inactive)	> 100 µM (inactive)	> 100 µM (inactive)	> 100 µM (inactive)	> 100 µM (inactive)	–	> 100 µM (inactive)	> 100 µM (inactive)	> 100 µM (inactive)	> 100 µM (inactive)	> 100 µM (inactive)	–	> 100 µM (inactive)	> 100 µM (inactive)
Cn1c2n/c(=N\c3ccc(Cl)cc3)[n+]3ccc4ccccc4c3c-2c([O-])n1-c1ccccc1	–	> 100 µM (inactive)	–	> 100 µM (inactive)	–	> 100 µM (inactive)	> 100 µM (inactive)	> 100 µM (inactive)	> 100 µM (inactive)	> 100 µM (inactive)	> 100 µM (inactive)	> 100 µM (inactive)	> 100 µM (inactive)	46.3 µM (inactive)	> 100 µM (inactive)	> 100 µM (inactive)	42.9 µM (inactive)	> 100 µM (inactive)	> 100 µM (inactive)	–
COCC[N+](CCNC(=O)c1cccc2c(N)c3cccc(C)c3nc12)(CCOC)Cc1ccc([N+](=O)[O-])cc1	13.5 µM (inactive)	21.8 µM (inactive)	6.15 µM (inactive)	–	29.6 µM (inactive)	31.1 µM (inactive)	–	16.7 µM (inactive)	32.9 µM (inactive)	2.99 µM (inactive)	21.1 µM (inactive)	16.9 µM (inactive)	63 µM (inactive)	> 100 µM (inactive)	16.1 µM (inactive)	11.1 µM (inactive)	14.5 µM (inactive)	–	4.53 µM (inactive)	–
Cc1c(C#N)c2nc3ccccc3n2c(=O)/c1=C/Nc1ccc(Cl)cc1	53.1 µM (inactive)	22.7 µM (inactive)	–	2.72 µM (inactive)	3.83 µM (inactive)	> 100 µM (inactive)	42.3 µM (inactive)	–	93.3 µM (inactive)	> 100 µM (inactive)	> 100 µM (inactive)	> 100 µM (inactive)	15.7 µM (inactive)	11.3 µM (inactive)	95.1 µM (inactive)	36.1 µM (inactive)	6.61 µM (inactive)	11.7 µM (inactive)	19.4 µM (inactive)	14.1 µM (inactive)
CC(C)C(C(=O)O)N1C(=O)c2ccccc2C1=O (stereo unspecified)	> 100 µM (inactive)	> 100 µM (inactive)	> 100 µM (inactive)	> 100 µM (inactive)	> 100 µM (inactive)	> 100 µM (inactive)	> 100 µM (inactive)	> 100 µM (inactive)	> 100 µM (inactive)	–	> 100 µM (inactive)	> 100 µM (inactive)	–	> 100 µM (inactive)	> 100 µM (inactive)	> 100 µM (inactive)	> 100 µM (inactive)	> 100 µM (inactive)	> 100 µM (inactive)	> 100 µM (inactive)
Cn1c2ccccc2n2c3ncccc3c(=O)cc12	20.2 µM (inactive)	65.8 µM (inactive)	–	78.3 µM (inactive)	64.3 µM (inactive)	54.8 µM (inactive)	44.3 µM (inactive)	50.2 µM (inactive)	44.7 µM (inactive)	–	50 µM (inactive)	75 µM (inactive)	26.3 µM (inactive)	36.2 µM (inactive)	60.4 µM (inactive)	28.9 µM (inactive)	71.9 µM (inactive)	62.8 µM (inactive)	32.9 µM (inactive)	> 100 µM (inactive)
O=c1[nH]/c(=C/c2ccc(OCc3ccccc3)cn2)c(=O)[nH]/c1=C/c1ccc(F)cc1	1.8 µM (inactive)	4.97 µM (inactive)	0.458 µM (active)	0.154 µM (active)	0.698 µM (active)	0.069 µM (active)	2.22 µM (inactive)	0.207 µM (active)	0.785 µM (active)	0.0815 µM (active)	0.416 µM (active)	0.512 µM (active)	0.498 µM (active)	–	0.55 µM (active)	0.335 µM (active)	0.344 µM (active)	0.243 µM (active)	0.366 µM (active)	0.794 µM (active)
COc1cc(OC)c2nccc(NCCCN(C)C)c2c1[N+](=O)[O-]	> 100 µM (inactive)	> 100 µM (inactive)	> 100 µM (inactive)	87.9 µM (inactive)	27.3 µM (inactive)	> 100 µM (inactive)	–	49.3 µM (inactive)	> 100 µM (inactive)	24.7 µM (inactive)	95.9 µM (inactive)	58.3 µM (inactive)	> 100 µM (inactive)	> 100 µM (inactive)	34.1 µM (inactive)	49.5 µM (inactive)	> 100 µM (inactive)	–	> 100 µM (inactive)	> 100 µM (inactive)
CCCCOC(=O)C1CC[C@H]2[C@@H]3CCc4cc(OC(=O)c5cccc6c(=O)c7ccccc7[nH]c56)ccc4[C@H]3CC[C@]12C (stereo partly specified)	9.35 µM (inactive)	8.17 µM (inactive)	–	9.98 µM (inactive)	11.3 µM (inactive)	7.83 µM (inactive)	11.4 µM (inactive)	8.47 µM (inactive)	8.45 µM (inactive)	–	12.4 µM (inactive)	8.47 µM (inactive)	8.17 µM (inactive)	7.19 µM (inactive)	7.29 µM (inactive)	8.13 µM (inactive)	9.71 µM (inactive)	9.48 µM (inactive)	6.46 µM (inactive)	9.86 µM (inactive)
COP(=O)(O)/C=C/C(NC(=O)C(Cl)(Cl)Cl)c1ccccc1 (stereo unspecified)	> 100 µM (inactive)	> 100 µM (inactive)	–	> 100 µM (inactive)	> 100 µM (inactive)	> 100 µM (inactive)	> 100 µM (inactive)	> 100 µM (inactive)	> 100 µM (inactive)	–	> 100 µM (inactive)	> 100 µM (inactive)	> 100 µM (inactive)	> 100 µM (inactive)	> 100 µM (inactive)	> 100 µM (inactive)	> 100 µM (inactive)	> 100 µM (inactive)	> 100 µM (inactive)	> 100 µM (inactive)
CSC[C@H](NC(=O)COc1cccc2cnccc12)C(=O)NC(Cc1ccccc1)C(O)C(=O)N1CSC[C@H]1C(=O)NC(C)(C)C (stereo partly specified)	32.4 µM (inactive)	> 100 µM (inactive)	26.5 µM (inactive)	32.5 µM (inactive)	78.2 µM (inactive)	38.4 µM (inactive)	> 100 µM (inactive)	69.8 µM (inactive)	84.7 µM (inactive)	36.8 µM (inactive)	> 100 µM (inactive)	29.2 µM (inactive)	86.3 µM (inactive)	–	27.5 µM (inactive)	> 100 µM (inactive)	53.2 µM (inactive)	29.2 µM (inactive)	> 10 µM (inactive)	> 100 µM (inactive)
CN(C)Cc1cc(C(=O)/C=C/c2c(F)cccc2Cl)cc(CN(C)C)c1O	14.3 µM (inactive)	8.2 µM (inactive)	5.13 µM (inactive)	4.09 µM (inactive)	13.2 µM (inactive)	13 µM (inactive)	13.5 µM (inactive)	9.18 µM (inactive)	4.57 µM (inactive)	–	9.57 µM (inactive)	11.4 µM (inactive)	3.7 µM (inactive)	11.5 µM (inactive)	10.8 µM (inactive)	5.47 µM (inactive)	12.8 µM (inactive)	2.69 µM (inactive)	15.3 µM (inactive)	14.1 µM (inactive)
